Test results reported in patent publication US8415351B2 (priority 2007, dated 2013).

How the values were obtained:
[1] = system: genotype 1a-H77 subgenomic replicon cell line; assay: microbe, parasite or virus in culture; assay type: cell-based, HCV; details: Hepatitis C virus, read-out: EC50 1a
[2] = molecular target: T1, HCV polymerase 1B (Δ21 NS5B, BK) (Hepatitis C virus genotype 1b, UniProt P26663); assay: biochemical
T1 construct: 20 to 50 nM Δ21 NS5B
How it was run: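 Δ21 NS5B (genotype 1b, BK […]) preincubated 15 min RT with inhibitor, 2 mM MnCl2, pH 7.4, 60–125 μM GTP; started with 20 μM CTP/ATP, 1 μM 3H-UTP, 5 nM template RNA, run 2–4 h RT. Spermine-precipitated RNA filter-captured, scintillation counted; IC50 from tight-binding (Morrison) fit.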

[3] = molecular target: T2, HCV polymerase 1A (Δ21 NS5B, H77) (Hepatitis C virus genotype 1a, UniProt P27958); assay: biochemical; details: IC50 1a
T2 construct: 20 to 50 nM Δ21 NS5B
T2 sequence (P27958 2421-2990, stated change not applied): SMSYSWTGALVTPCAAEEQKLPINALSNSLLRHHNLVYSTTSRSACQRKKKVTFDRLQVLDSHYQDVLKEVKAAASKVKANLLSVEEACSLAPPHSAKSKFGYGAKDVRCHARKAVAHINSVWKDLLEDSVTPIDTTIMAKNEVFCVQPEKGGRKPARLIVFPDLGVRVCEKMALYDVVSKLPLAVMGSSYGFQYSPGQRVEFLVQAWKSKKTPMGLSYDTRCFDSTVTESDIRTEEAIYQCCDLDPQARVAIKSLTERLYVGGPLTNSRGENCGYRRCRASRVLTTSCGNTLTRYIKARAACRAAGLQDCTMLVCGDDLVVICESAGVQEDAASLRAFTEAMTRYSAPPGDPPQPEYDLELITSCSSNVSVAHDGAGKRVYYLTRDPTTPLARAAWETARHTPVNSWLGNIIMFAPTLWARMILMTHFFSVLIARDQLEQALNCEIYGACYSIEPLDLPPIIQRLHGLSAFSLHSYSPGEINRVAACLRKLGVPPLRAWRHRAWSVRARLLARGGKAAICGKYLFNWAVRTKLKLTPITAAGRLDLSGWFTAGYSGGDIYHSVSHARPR
How it was run: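 Radiometric assay with Δ21 NS5B (H77): 20 μM CTP, 20 μM ATP, 1 μM ^3H-UTP, 5 nM template RNA, 2–4 h at room temperature. RNA precipitated with spermine, filter-captured and counted. IC50 from non-linear fit of retained cpm vs inhibitor concentration (tight-binding equation).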

[4] = system: genotype 1b-Con1 subgenomic replicon cell line; assay: microbe, parasite or virus in culture; assay type: cell-based, HCV; details: Hepatitis C virus, read-out: EC50 1b

T1 sequence (P26663 2420-2989, stated change not applied): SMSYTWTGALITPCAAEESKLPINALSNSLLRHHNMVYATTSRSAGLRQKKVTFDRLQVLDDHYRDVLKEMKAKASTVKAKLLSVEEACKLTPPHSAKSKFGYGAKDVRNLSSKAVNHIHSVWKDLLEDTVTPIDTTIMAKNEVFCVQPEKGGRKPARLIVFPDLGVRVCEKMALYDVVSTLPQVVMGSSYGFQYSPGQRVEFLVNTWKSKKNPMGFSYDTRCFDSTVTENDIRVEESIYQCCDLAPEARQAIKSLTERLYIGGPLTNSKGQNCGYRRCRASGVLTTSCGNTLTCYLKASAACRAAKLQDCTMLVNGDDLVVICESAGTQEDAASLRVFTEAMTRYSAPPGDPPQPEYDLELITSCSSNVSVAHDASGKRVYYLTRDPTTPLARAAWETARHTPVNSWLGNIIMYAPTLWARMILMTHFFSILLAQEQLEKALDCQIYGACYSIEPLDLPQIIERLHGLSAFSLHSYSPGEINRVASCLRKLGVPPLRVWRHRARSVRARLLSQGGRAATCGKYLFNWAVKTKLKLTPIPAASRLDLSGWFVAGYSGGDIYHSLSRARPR

Structure (SMILES) | EC50 [1] | IC50 [2] | IC50 [3] | EC50 [4]
COc1c(C(=O)Nc2cc(CN(C)S(C)(=O)=O)cs2)cc(N2CCC(=O)NC2=O)cc1C(C)(C)C [IA-L3-1.97, 3-tert-butyl-5-(2,4-dioxotetrahydropyrimidin-1(2H)-yl)-2-methoxy-N-(4-((N-methylmethylsulfonamido)methyl)thiophen-2-yl)benzamide] | > 1 µM | > 1 µM | > 1 µM | > 1 µM
COc1c(-c2ccc(CCNS(C)(=O)=O)cc2)cc(-n2ccc(=O)[nH]c2=O)cc1C(C)(C)C [IB-L0-1.4, N-(2-(3′-tert-butyl-5′-(2,4-dioxo-3,4-dihydropyrimidin-1(2H)-yl)-2′-methoxybiphenyl-4-yl)ethyl)methanesulfonamide] | 0.1 to 1 µM | 0.01 to 0.1 µM | 0.01 to 0.1 µM | 0.01 to 0.1 µM
CN(C(=O)c1cc(N2CCC(=O)NC2=O)cc(C(C)(C)C)c1O)c1ccc(NS(C)(=O)=O)cc1 [IA-L3-1.2, 3-tert-butyl-5-(2,4-dioxotetrahydropyrimidin-1(2H)-yl)-2-hydroxy-N-methyl-N-(4-(methyl-sulfonamido)phenyl)benzamide] | > 1 µM | 0.01 to 0.1 µM | > 1 µM | > 1 µM
COc1c(C#Cc2cccc(NS(C)(=O)=O)c2)cc(N2CCC(=O)NC2=O)cc1C(C)(C)C [IA-L2-1.7, N-(3-((3-tert-butyl-5-(2,4-dioxotetrahydropyrimidin-1(2H)-yl)-2-methoxyphenyl)ethynyl)phenyl)methanesulfonamide] | > 1 µM | 0.01 to 0.1 µM | 0.01 to 0.1 µM | 0.1 to 1 µM
COc1c(C(=O)Nc2ccc(NS(C)(=O)=O)cc2C)cc(N2CCC(=O)NC2=O)cc1C(C)(C)C [IA-L3-1.83, 3-tert-butyl-5-(2,4-dioxotetrahydropyrimidin-1(2H)-yl)-2-methoxy-N-(2-methyl-4-(methylsulfonamido)phenyl)benzamide] | 0.1 to 1 µM | 0.1 to 1 µM | 0.01 to 0.1 µM | 0.1 to 1 µM
CC(C)(C)c1cc(C#Cc2ccc(NS(C)(=O)=O)cc2Cl)cc(N2CCC(=O)NC2=O)c1 [IA-L2-1.3, N-(4-((3-tert-butyl-5-(2,4-dioxotetrahydropyrimidin-1(2H)-yl)phenyl)ethynyl)-3-chlorophenyl)methanesulfonamide] | 0.01 to 0.1 µM | < 0.01 µM | < 0.01 µM | < 0.01 µM
COc1c(-c2ccoc2)cc(-n2ccc(=O)[nH]c2=O)cc1-c1ccc2c(c1)CC=C2CNS(C)(=O)=O [IB-L0-2.67, N-((6-(5-(2,4-dioxo-3,4-dihydropyrimidin-1(2H)-yl)-3-(furan-3-yl)-2-methoxyphenyl)-1H-inden-3-yl)methyl)methanesulfonamide] | 0.1 to 1 µM | 0.01 to 0.1 µM | 0.01 to 0.1 µM | 0.01 to 0.1 µM
COc1c(C#Cc2ccc(NS(C)(=O)=O)cc2F)cc(N2CCC(=O)NC2=O)cc1C(C)(C)C [IA-L2-1.12, N-(4-((3-tert-butyl-5-(2,4-dioxotetrahydropyrimidin-1(2H)-yl)-2-methoxyphenyl)ethynyl)-3-fluorophenyl)methanesulfonamide] | 0.01 to 0.1 µM | < 0.01 µM | < 0.01 µM | < 0.01 µM
COc1c(C#Cc2ccc(NS(C)(=O)=O)cc2NC(C)=O)cc(-n2ccc(=O)[nH]c2=O)cc1C(C)(C)C [IB-L2-1.12, N-(2-((3-tert-butyl-5-(2,4-dioxo-3,4-dihydropyrimidin-1(2H)-yl)-2-methoxyphenyl)ethynyl)-5-(methylsulfonamido)phenyl)acetamide] | 0.1 to 1 µM | 0.01 to 0.1 µM | 0.01 to 0.1 µM | 0.01 to 0.1 µM
COc1c(C#Cc2ccc(NS(C)(=O)=O)c(C(F)(F)F)c2)cc(N2CCC(=O)NC2=O)cc1C(C)(C)C [IA-L2-1.19, N-(4-((3-tert-butyl-5-(2,4-dioxotetrahydropyrimidin-1(2H)-yl)-2-methoxyphenyl)ethynyl)-2-(trifluoromethyl)phenyl)methanesulfonamide] | > 1 µM | 0.01 to 0.1 µM | 0.1 to 1 µM | > 1 µM
COc1c(-c2ccc3c(c2)CC=C3CNS(C)(=O)=O)cc(-n2ccc(=O)[nH]c2=O)cc1C(C)(C)C [IB-L0-2.13, N-((6-(3-tert-butyl-5-(2,4-dioxo-3,4-dihydropyrimidin-1(2H)-yl)-2-methoxyphenyl)-1H-inden-3-yl)methyl)methanesulfonamide] | 0.01 to 0.1 µM | 0.01 to 0.1 µM | < 0.01 µM | < 0.01 µM
CCc1cc(N2CCC(=O)NC2=O)cc(C(=O)Nc2ccc(NS(C)(=O)=O)cc2)c1O [IA-L3-1.113, 5-(2,4-dioxotetrahydropyrimidin-1(2H)-yl)-3-ethyl-2-hydroxy-N-(4-(methylsulfonamido)phenyl)benzamide] | > 1 µM | > 1 µM | > 1 µM | > 1 µM
COc1c(C#Cc2ccc(NS(C)(=O)=O)cc2C)cc(-n2ccc(=O)[nH]c2=O)cc1C(C)(C)C [IB-L2-1.1, N-(4-((3-tert-butyl-5-(2,4-dioxo-3,4-dihydropyrimidin-1(2H)-yl)-2-methoxyphenyl)ethynyl)-3-methylphenyl)methanesulfonamide] | < 0.01 µM | 0.01 to 0.1 µM | < 0.01 µM | < 0.01 µM
COc1c(C#Cc2cc(F)c(NS(C)(=O)=O)cc2C(F)(F)F)cc(-n2ccc(=O)[nH]c2=O)cc1C(C)(C)C [IB-L2-1.5, N-(4-((3-tert-butyl-5-(2,4-dioxo-3,4-dihydropyrimidin-1(2H)-yl)-2-methoxyphenyl)ethynyl)-2-fluoro-5-(trifluoromethyl)phenyl)methanesulfonamide] | 0.1 to 1 µM | 0.01 to 0.1 µM | 0.01 to 0.1 µM | 0.01 to 0.1 µM
COc1c(C(=O)Nc2ccc(NS(=O)(=O)Cc3ccccc3)cc2)cc(N2CCC(=O)NC2=O)cc1C(C)(C)C [IA-L3-1.57, 3-tert-butyl-5-(2,4-dioxotetrahydropyrimidin-1(2H)-yl)-2-methoxy-N-(4-(phenylmethyl-sulfonamido)phenyl)benzamide] | 0.1 to 1 µM | 0.1 to 1 µM | 0.01 to 0.1 µM | 0.1 to 1 µM
CC(C)(C)c1cc(N2CCC(=O)NC2=O)cc(C(=O)Nc2ccc(S(C)(=O)=O)cc2)c1O [IA-L3-1.21, 3-tert-butyl-5-(2,4-dioxotetrahydropyrimidin-1(2H)-yl)-2-hydroxy-N-(4-(methylsulfonyl)phenyl)benzamide] | > 1 µM | 0.1 to 1 µM | > 1 µM | > 1 µM
COc1c(C#Cc2ccc(NS(C)(=O)=O)c(OC(F)(F)F)c2)cc(N2CCC(=O)NC2=O)cc1C(C)(C)C [IA-L2-1.17, N-(4-((3-tert-butyl-5-(2,4-dioxotetrahydropyrimidin-1(2H)-yl)-2-methoxyphenyl)ethynyl)-2-(trifluoromethoxy)phenyl)methanesulfonamide] | 0.1 to 1 µM | 0.01 to 0.1 µM | 0.01 to 0.1 µM | 0.01 to 0.1 µM
CC(C)(C)c1cc(N2CCC(=O)NC2=O)cc(C(=O)Nc2ccc(CC(=O)O)cc2)c1O [IA-L3-1.15, 2-(4-(3-tert-butyl-5-(2,4-dioxotetrahydropyrimidin-1(2H)-yl)-2-hydroxybenzamido)phenyl)-acetic acid] | > 1 µM | 0.1 to 1 µM | > 1 µM | > 1 µM
COc1c(-c2ccc(/C=N/NS(C)(=O)=O)c(F)c2F)cc(N2CCC(=O)NC2=O)cc1C(C)(C)C [IA-L0-1.6, (E)-N′-((3′-tert-butyl-5′-(2,4-dioxotetrahydropyrimidin-1(2H)-yl)-2,3-difluoro-2′-methoxybiphenyl-4-yl)methylene)methanesulfonohydrazide] | 0.1 to 1 µM | 0.01 to 0.1 µM | 0.01 to 0.1 µM | 0.01 to 0.1 µM
COc1c(C#Cc2ccc(NS(C)(=O)=O)cc2O)cc(-n2ccc(=O)[nH]c2=O)cc1C(C)(C)C [IB-L2-1.6, N-(4-((3-tert-butyl-5-(2,4-dioxo-3,4-dihydropyrimidin-1(2H)-yl)-2-methoxyphenyl)ethynyl)-3-hydroxyphenyl)fmethanesulfonamide] | 0.01 to 0.1 µM | 0.01 to 0.1 µM | < 0.01 µM | < 0.01 µM
COc1cc(NS(C)(=O)=O)ccc1NC(=O)c1cc(N2CCC(=O)NC2=O)cc(C(C)(C)C)c1O [IA-L3-1.119, 3-tert-butyl-5-(2,4-dioxotetrahydropyrimidin-1(2H)-yl)-2-hydroxy-N-(2-methoxy-4-(methylsulfonamido)phenyl)benzamide] | 0.1 to 1 µM | < 0.01 µM | 0.01 to 0.1 µM | 0.01 to 0.1 µM
CCc1cc(N2CCC(=O)NC2=O)cc(C(=O)Nc2ccc(NS(C)(=O)=O)cc2)c1OC [IA-L3-1.112, 5-(2,4-dioxotetrahydropyrimidin-1(2H)-yl)-3-ethyl-2-methoxy-N-(4-(methylsulfonamido)phenyl)benzamide] | > 1 µM | 0.1 to 1 µM | 0.1 to 1 µM | 0.1 to 1 µM
COc1c(-c2ccc(/C(C)=N/NS(C)(=O)=O)cc2)cc(N2CCC(=O)NC2=O)cc1C(C)(C)C [IA-L0-1.2, (E)-N′-(1-(3′-tert-butyl-5′-(2,4-dioxotetrahydropyrimidin-1(2H)-yl)-2′-methoxybiphenyl-4-yl)ethylidene)methanesulfonohydrazide] | 0.1 to 1 µM | 0.01 to 0.1 µM | 0.01 to 0.1 µM | 0.01 to 0.1 µM
